Experimental data from patent US20220175777A1, “Inhibitors of Multidrug Resistance Transporter P-Glycoprotein” (Southern Methodist University, priority 2014, published 2022).

How the values were obtained:
[1] = system: DU145TXR; assay: Resensitization of DU145TXR to paclitaxel by 29 variants (MTT cell viability); format: cell-based, human; settings: for Fold vs PTX ÷ 29: compared to parental compound 29
Excerpt: The Group 1 ChemGen/docking routine produced variants of P-gp inhibitor 29 resensitize a multidrug resistant, P-gp overexpressing prostate cancer cell line to paclitaxel. The mitochondrial reduction potential of cells is often used as an indicator for cell viability using MTT assays^40-42. Using these assays it was observed that the five Group 1 derivatives of 29 predicted through the ChemGen/docking routine and synthesized here, 216, 227, 231, 541 and 551, re-sensitized the P-gp overexpressing prostate cancer cell line, DU145TXR^33, to the chemotherapeutic, paclitaxel (FIG. 9, showing results of assays at concentrations of 3 μM, 5 μM, 7 μM, and 10 μM).
Cytotoxicity of the chemotherapeutic, paclitaxel (PTX) to P-gp overexpressing prostate cancer cells, DU145TXR, was determined in the absence and presence of the ChemGen designed 29-variants, 216, 227, 231, 541 and 551. For each experimental compound IC50 values of PTX alone or in the presence of inhibitors, fold improvement of PTX sensitivity in the presence of inhibitor, and fold improvement of PTX sensitivity by variants compared to parental compound 29 are given.

[2] = biological target: T1, Cysteineless Mouse MDR3 P-glycoprotein (Mus musculus, UniProt P21447, C1070A/C1121A/C1223A/C133A/C427A/C638A/C669A/C713A/C952A); assay: ATP hydrolysis by purified P-glycoprotein, basal and verapamil-stimulated; format: biochemical; settings: ± standard deviation; for Stimulated ATPase (% of DMSO): in the presence of verapamil; for Basal ATPase (% of DMSO): without added transport substrate
T1 construct: made in house; host or cells: Pichia pastoris
T1 sequence (P21447 whole entry C133A/C427A/C638A/C669A/C713A/C952A/C1070A/C1121A/C1223A): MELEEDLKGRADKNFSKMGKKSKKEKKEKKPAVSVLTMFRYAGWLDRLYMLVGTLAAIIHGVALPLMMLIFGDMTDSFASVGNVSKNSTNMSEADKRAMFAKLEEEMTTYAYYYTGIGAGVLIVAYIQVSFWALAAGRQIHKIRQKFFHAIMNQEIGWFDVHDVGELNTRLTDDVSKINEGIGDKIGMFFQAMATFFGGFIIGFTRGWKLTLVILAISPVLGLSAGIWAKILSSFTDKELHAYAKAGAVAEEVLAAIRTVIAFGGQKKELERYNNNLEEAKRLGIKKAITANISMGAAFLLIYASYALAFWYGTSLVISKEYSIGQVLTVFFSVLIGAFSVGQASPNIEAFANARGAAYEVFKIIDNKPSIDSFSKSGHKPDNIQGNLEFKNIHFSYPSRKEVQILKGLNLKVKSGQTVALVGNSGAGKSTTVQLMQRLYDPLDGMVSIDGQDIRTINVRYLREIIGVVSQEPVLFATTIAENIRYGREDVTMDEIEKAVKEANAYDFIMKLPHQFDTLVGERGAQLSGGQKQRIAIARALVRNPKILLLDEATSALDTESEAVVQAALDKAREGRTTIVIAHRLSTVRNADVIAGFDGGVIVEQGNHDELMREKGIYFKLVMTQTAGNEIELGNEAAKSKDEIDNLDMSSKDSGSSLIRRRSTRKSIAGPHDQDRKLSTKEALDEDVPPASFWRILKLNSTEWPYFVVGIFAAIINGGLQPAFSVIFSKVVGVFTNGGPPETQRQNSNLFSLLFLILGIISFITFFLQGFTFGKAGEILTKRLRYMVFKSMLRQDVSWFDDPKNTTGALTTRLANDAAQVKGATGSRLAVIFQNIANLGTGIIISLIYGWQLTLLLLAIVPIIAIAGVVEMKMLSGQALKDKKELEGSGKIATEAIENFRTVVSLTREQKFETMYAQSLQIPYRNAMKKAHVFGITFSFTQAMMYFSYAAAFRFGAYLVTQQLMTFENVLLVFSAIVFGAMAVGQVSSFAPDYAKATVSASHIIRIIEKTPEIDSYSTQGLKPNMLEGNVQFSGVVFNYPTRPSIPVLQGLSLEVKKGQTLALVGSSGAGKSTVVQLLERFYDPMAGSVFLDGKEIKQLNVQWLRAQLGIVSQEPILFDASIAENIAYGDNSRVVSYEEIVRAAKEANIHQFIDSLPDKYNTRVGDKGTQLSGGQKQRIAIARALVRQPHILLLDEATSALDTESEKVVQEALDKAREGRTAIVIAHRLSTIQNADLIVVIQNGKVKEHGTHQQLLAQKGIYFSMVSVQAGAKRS
Excerpt: The efficacy of molecules identified using in silico methods to function as potential inhibitors of P-glycoprotein was initially tested with regard to their capability to inhibit ATP hydrolysis by purified P-glycoprotein. For this purpose, a well-established activity assay for ATP hydrolyzing enzymes that uses the oxidation of NADH to NAD+ through coupling the reactions of pyruvate kinase and lactate dehydrogenase to the hydrolysis of ATP was adapted to medium throughput conditions on 96 well plates. […] In this set-up, the effects of potential small molecule inhibitors on the ATP hydrolysis activity of P-glycoprotein were tested in duplicate or triplicate and were repeated at least two times using different enzyme preparations.
The P-glycoprotein used in these assays was a close relative of the human P-glycoprotein that is found in mice. A mutant version of the mouse P-glycoprotein where all intrinsic cysteine amino acids had been replaced by alanine residues was recombinantly expressed in the yeast Pichia pastoris and used for these initial tests. […] Prior to testing the ATP-hydrolysis activity, P-glycoprotein was incubated with phosphatidyl choline for stabilization of the enzyme during the assay.
Different concentrations of the to-be-tested small molecules were added and pre-incubated at 37° C. The ATP hydrolysis reaction was then started by adding equal volume of double concentrated ATPase cocktail. The final ATP concentration in the reaction was 2 mM. The reaction was allowed to proceed for 20 minutes, the rate of ATP hydrolysis was calculated using the molar extinction coefficient of NADH, and the one-to-one relationship of ATP hydrolyzed and NADH oxidized.
Evaluation of mode of inhibition of P-glycoprotein by Group 1 and Group 2 variants of compound 29. To assess the mode of inhibition of P-gp by the novel variants of P-gp inhibitor 29, ATP hydrolysis by P-gp was evaluated in the presence or absence of the variants. […] Murine P-gp (MDR3) expressed in Pichia pastoris that had all naturally occurring cysteines replaced with alanine, was used^45, 46. It is widely assumed that the ATP hydrolytic rate of P-gp is stimulated in the presence of transport substrates when compared to ATP hydrolysis in the absence of transport substrates. Assays comparing these rates can therefore be useful not only in identifying inhibitors of P-gp catalyzed ATP hydrolysis, but also to potentially infer whether a compound might be a transport substrate if basal ATPase rates are stimulated by the addition of a compound.

[3] = biological target: T1, Cysteineless Mouse MDR3 P-glycoprotein; assay: SL-ATP binding to P-gp by ESR spectroscopy; settings: SL-ATP titration in presence of compound
Excerpt: Determination of the possible mode of ATP hydrolysis inhibition by the identified P-glycoprotein inhibitors. The mode of hydrolysis of ATP by P-glycoprotein was investigated by measuring the maximal binding stoichiometry and binding affinity of an analog of ATP, SL-ATP, and by Electron Spin Resonance (ESR) spectroscopy, similar to in both the presence and absence of the identified inhibitors.
The high-field signal of the freely mobile, unbound SL-ATP is compared and is used to calculate the amount of ATP-analog bound to P-glycoprotein. Binding of SL-ATP in the absence of any P-glycoprotein inhibitor saturated at about 2 mol of SL-nucleotide bounds per mol of P-glycoprotein.
FIGS. 2A-2D are plots showing the effects of P-glycoprotein ATP hydrolysis inhibitors on nucleotide binding. Between 30 and 50 microM Pgp were incubated with 50 microM inhibitor compound. Increasing amounts of SL-ATP were added. The ESR signal of the free SL-ATP in the presence of P-glycoprotein and inhibitor was compared to that in the absence of P-glycoprotein. The graphs represent at least 3 individual studies each using 3 to 5 different P-glycoprotein preparations.

[4] = biological target: Normal Human MDR1 P-glycoprotein (Homo sapiens, UniProt P08183); assay: ATP hydrolysis by human P-gp assembled into membrane nanodiscs; format: biochemical; settings: human MDR1 P-gp in nanodiscs
Chain of Normal Human MDR1 P-glycoprotein (P08183 whole entry): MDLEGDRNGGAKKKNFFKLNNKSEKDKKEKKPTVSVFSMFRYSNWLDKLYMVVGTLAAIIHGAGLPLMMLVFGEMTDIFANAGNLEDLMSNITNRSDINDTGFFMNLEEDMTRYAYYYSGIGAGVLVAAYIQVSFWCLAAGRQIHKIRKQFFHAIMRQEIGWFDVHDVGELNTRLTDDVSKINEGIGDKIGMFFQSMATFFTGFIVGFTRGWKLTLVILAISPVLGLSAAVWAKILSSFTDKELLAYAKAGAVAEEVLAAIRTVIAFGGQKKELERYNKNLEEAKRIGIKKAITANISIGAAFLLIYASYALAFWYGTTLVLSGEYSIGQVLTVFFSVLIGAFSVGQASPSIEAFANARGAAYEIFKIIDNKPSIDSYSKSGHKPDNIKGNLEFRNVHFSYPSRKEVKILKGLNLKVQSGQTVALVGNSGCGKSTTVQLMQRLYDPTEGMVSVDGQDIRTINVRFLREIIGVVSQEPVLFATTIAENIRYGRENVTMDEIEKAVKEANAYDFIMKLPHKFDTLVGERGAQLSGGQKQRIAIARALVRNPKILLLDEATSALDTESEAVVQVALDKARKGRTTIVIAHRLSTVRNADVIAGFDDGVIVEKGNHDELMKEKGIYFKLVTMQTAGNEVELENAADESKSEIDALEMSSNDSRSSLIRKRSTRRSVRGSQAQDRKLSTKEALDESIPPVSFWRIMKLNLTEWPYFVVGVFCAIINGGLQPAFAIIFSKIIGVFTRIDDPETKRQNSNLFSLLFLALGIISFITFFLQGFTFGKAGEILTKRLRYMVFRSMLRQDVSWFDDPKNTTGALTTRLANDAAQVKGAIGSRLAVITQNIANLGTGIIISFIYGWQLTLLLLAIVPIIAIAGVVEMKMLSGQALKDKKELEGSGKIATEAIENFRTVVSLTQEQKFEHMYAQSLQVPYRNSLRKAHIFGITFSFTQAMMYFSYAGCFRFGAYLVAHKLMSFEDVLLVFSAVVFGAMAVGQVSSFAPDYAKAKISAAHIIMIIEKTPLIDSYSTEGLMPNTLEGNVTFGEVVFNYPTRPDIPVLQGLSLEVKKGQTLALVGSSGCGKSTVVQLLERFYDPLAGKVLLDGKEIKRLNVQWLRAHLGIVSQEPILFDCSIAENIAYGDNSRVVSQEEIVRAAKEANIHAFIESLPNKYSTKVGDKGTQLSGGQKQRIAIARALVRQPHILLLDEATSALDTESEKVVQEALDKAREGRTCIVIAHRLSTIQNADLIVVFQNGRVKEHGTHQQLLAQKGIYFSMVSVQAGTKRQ
Excerpt: To assess whether the observed discrepancies of compounds stimulating basal P-gp ATPase activity but not being transport substrates of the human pump in the cell culture assessments were due to the fact that these biochemical assays used a cysteineless variant of the mouse MDR3 P-glycoprotein, the experiments were repeated using normal human MDR1 P-gp. In order to stabilize the human protein for the activity assays, the protein was assembled into membrane nanodiscs as described herein.

[5] = system: DU145TXR; assay: Intrinsic toxicity, MTT survival; format: cell-based, human
Method: (§1) Percent survival determined by MTT assay calculated relative to cells treated with equal volume DMSO vehicle and represent the mean±SEM from 2-4 separate studies, each study performed in triplicate wells.
(§2) The intrinsic in vitro toxicities of identified compounds were evaluated to determine their potential therapeutic window. This was assessed in a noncancerous cell line (HFL1) and the human prostate cancer cell lines DU145 and the MDR sub-line DU145TxR.

[6] = system: P-gp overexpressing DU145TXR cells; assay: Calcein AM accumulation assay; format: cell-based, human
Method: Accumulation and cellular retention of calcein AM in P-gp overexpressing prostate cancer cells upon incubation with Group 1 SMU-29 variants. Calcein AM accumulation assays have been used by us previously to evaluate P-gp-substrate accumulation in real time in the presence or absence of P-gp inhibitors^28. For these assays, P-gp overexpressing DU145TXR cells were incubated with the respective inhibitors in the presence of the P-gp substrate, calcein AM. Inhibition of P-gp leads to cellular accumulation of calcein AM and to cleavage of its acetoxymethyl ester groups, resulting in the generation of the highly fluorescent compound, calcein. The anionic calcein is not a substrate of P-gp and remains in the cells. In these assays, the relative fluorescence of cellular calcein was measured over time and the results of these assays are shown in FIG. 10A.
The inventors determined if preferential partitioning of variants in the hydrophobic part of the cell membrane may keep them more distant from the putative allosteric site on P-gp which is located adjacent to the membrane in the cytoplasm, therefore potentially slowing the inhibitory effect of the compounds.

[7] = system: DU145; assay: Intrinsic toxicity, MTT survival; format: cell-based; settings: Homo sapiens, DU-145, 48 hours, ± standard error
Method: as §1, §2

[8] = system: DU145TXR; assay: Potentiation of 500 nM paclitaxel cytotoxicity (MTT); format: cell-based, human; settings: 50 nM-25 μM inhibitor with 500 nM paclitaxel
Method: FIGS. 4A and 4B show the in silico identified P-gp inhibitors potentiate the cytotoxic effects of paclitaxel in the MDR human prostate cancer cell line DU145TxR. […] Values represent the mean±SEM of at least two separate experiments performed in triplicate.
A range of experimental inhibitor concentrations was added in the presence of 500 nM paclitaxel and the cell viability was assessed using the MTT assay.
In order to compare the efficacy of inhibitors, the potentiation concentration of inhibitor resulting in 50% reduction in cell viability, PC50, in the presence of 500 nM paclitaxel was calculated from the data in FIG. 4A.

[9] = system: DU145TXR; assay: Dose dependent sensitization of MDR cell line to paclitaxel (MTT); format: cell-based, human; settings: 5 μM and 10 μM compound
Method: FIGS. 6A to 6C show the dose dependent sensitization of MDR prostate cancer cell line DU145TxR. […] For reference, the DU145TxR (closed circle) and DU145 (open circle) incubated with paclitaxel only are also included. Values are mean±SEM from at least 2 separate experiments performed in triplicate wells. The data were normalized to the intrinsic toxicities as determined in studies from FIGS. 5A to 5C of each of the compounds for each of the corresponding concentrations.
Dose Dependent Sensitization of MDR Prostate Cancer Cell Line: To determine the degree to which the MDR prostate cancer cell line DU145TxR could be sensitized to paclitaxel the inventors determined cell survival at increasing concentrations of paclitaxel in the presence of three concentrations of P-gp inhibitors. FIGS. 6A, 6B and 6C show the survival of DU145TxR at increasing concentration of paclitaxel in the presence of 5 μM, 10 μM and 25 μM of the experimental compounds, respectively. The open circles represent the parental DU145 cell line in the presence of paclitaxel without addition of any inhibitor compound. The closed circles represent the survival of the multidrug resistant DU145TxR in the presence of paclitaxel alone. […] At that concentration over 10-fold increase in paclitaxel sensitivity in DU145TxR is observed compared to DU145TxR without P-gp inhibitors. Doubling the concentration of the compounds to 10 μM approximately doubled the DU145TxR sensitivity to paclitaxel.

[10] = biological target: T1, Cysteineless Mouse MDR3 P-glycoprotein; settings: ESR data of Brewer et al. (2014); cited from earlier work

Stimulated ATPase (% of DMSO) [2] | Basal ATPase (% of DMSO) [2] | Maximum ATP binding mol SL-ANP bound/mol P-gp [3] | Basal ATPase (% of DMSO) [4] | Stimulated ATPase (% of DMSO) [4] | Structure (SMILES) | Fold vs PTX ([1]; 3 μM inhibitor, fold improvement of PTX sensitivity vs PTX alone) | Fold vs PTX ÷ 29 ([1]; 5 μM inhibitor) | Fold vs PTX ([1]; 5 μM inhibitor, vs PTX alone) | Fold vs PTX ÷ 29 ([1]; 7 μM inhibitor) | Fold vs PTX ([1]; 7 μM inhibitor, vs PTX alone) | Fold vs PTX ÷ 29 ([1]; 10 μM inhibitor) | Fold vs PTX ([1]; 10 μM inhibitor, vs PTX alone) | Toxicity in cell viability assays ([5]; in the absence of chemotherapeutic) | Cellular calcein accumulation relative to parental compound 29 ([6]; after 6-hour pre-incubation) | Cellular calcein accumulation relative to parental compound 29 ([6]; no preincubation) | IC50 [7] | IC50 ([5]; Homo sapiens, intrinsic toxicity, 48 hours, MTT, ± standard error) | Effect on paclitaxel sensitivity [8] | Effect on cell viability with paclitaxel [9] | Effect on SL-ANP binding [10]
68 ± 7 % of DMSO | 101 ± 12 % of DMSO | 1.8 ± 0.1 mol SL-ANP bound/mol P-gp | 87 ± 9 % of DMSO | 66 ± 6 % of DMSO | Cc1cc(C)c(-c2cc(NC(=O)CSc3nnc4c(n3)[nH]c3ccccc34)n(-c3ccccc3)n2)cc1C [SMU29-541, 2-((5H-[1,2,4]triazino[5,6-b]indol-3-yl)thio)-N-(1-phenyl-3-(2,4,5-trimethylphenyl)-1H-pyrazol-5-yl)acetamide] | 5 Fold | 9.2 Fold | 101 Fold | 3.4 Fold | 125 Fold | 3.4 Fold | 125 Fold | some toxicity | exceeded 29 significantly | performed relatively equally to 29 | – | – | – | – | –
– | – | – | – | – | COc1ccc(CCN(C)CCCC(C#N)(c2ccc(OC)c(OC)c2)C(C)C)cc1OC (stereo not drawn) [Verapamil, verapamil, reference compound] | – | – | – | – | – | – | – | – | – | – | 74.5 ± 0.04 µM | 147.5 ± 0.1 µM | – | – | –
– | – | – | – | – | COC(=O)c1ccc(C(c2c(O)oc3ccccc3c2=O)c2c(O)oc3ccccc3c2=O)cc1 [SMU-19, methyl 4-[bis(2-hydroxy-4-oxochromen-3-yl)methyl]benzoate] | – | – | – | – | – | – | – | – | – | – | – | – | no effect | no effect on cell viability | reduce the number of binding sites
62 ± 5 % of DMSO | 150 ± 6 % of DMSO | 1.7 ± 0.1 mol SL-ANP bound/mol P-gp | 72 ± 9 % of DMSO | 27 ± 1 % of DMSO | Cc1cc(C)c(-c2cc(NC(=O)CSc3cccc(NC(=O)c4cncc(Br)c4)c3)n(-c3ccccc3)n2)cc1C [SMU29-551, 5-bromo-N-(3-((2-oxo-2-((1-phenyl-3-(2,4,5-trimethylphenyl)-1H-pyrazol-5-yl)amino)ethyl)thio)phenyl)nicotinamide] | – | 9.7 Fold | 106 Fold | 6.6 Fold | 236 Fold | 3.5 Fold | 353 Fold | – | equivalent to 29 | marginally higher calcein accumulation than parental compound 29 | – | – | – | – | –
